# Measured values from PubChem BioAssay AID1259407 (Chemical Carcinogenesis Research Information System (CCRIS), 2018).
# Active and inactive are the calls of the source. No rule for the calls is given here.
# System: CCRIS mutagenicity, Ames/micronucleus/aberration tests
# Experiment: CCRIS mutagenicity studies
# [1] = Test System: AMES SALMONELLA TYPHIMURIUM, Strain/Indicator: TA98, Metabolic Activation: NONE, Method: PREINCUBATION
# [2] = Test System: AMES SALMONELLA TYPHIMURIUM, Strain/Indicator: TA100, Metabolic Activation: NONE, Method: PREINCUBATION
# [3] = Test System: AMES SALMONELLA TYPHIMURIUM, Strain/Indicator: TA98, Metabolic Activation: NONE, Method: STANDARD PLATE
# [4] = Test System: AMES SALMONELLA TYPHIMURIUM, Strain/Indicator: TA100, Metabolic Activation: NONE, Method: STANDARD PLATE
# [5] = Test System: AMES SALMONELLA TYPHIMURIUM, Strain/Indicator: TA1535, Metabolic Activation: NONE, Method: STANDARD PLATE
# [6] = Test System: AMES SALMONELLA TYPHIMURIUM, Strain/Indicator: TA1538, Metabolic Activation: NONE, Method: STANDARD PLATE
# [7] = Test System: E. COLI, Strain/Indicator: WP2, Metabolic Activation: NONE, Method: STANDARD PLATE
# [8] = Test System: E. COLI, Strain/Indicator: WP2 UVRA, Metabolic Activation: NONE, Method: STANDARD PLATE
smiles,measurement,setting,value
Nc1cc([N+](=O)[O-])cc(Cl)c1O,mutagenic call,"Test System: AMES SALMONELLA TYPHIMURIUM, Strain/Indicator: TA97, Metabolic Activation: HAMSTER, LIVER, S-9, AROCLOR 1254 (10%), Method: PREINCUBATION",active; positive
same,mutagenic call,"Test System: AMES SALMONELLA TYPHIMURIUM, Strain/Indicator: TA97, Metabolic Activation: NONE, Method: PREINCUBATION",active; positive
same,mutagenic call,"Test System: AMES SALMONELLA TYPHIMURIUM, Strain/Indicator: TA97, Metabolic Activation: RAT, LIVER, S-9, AROCLOR 1254 (10%), Method: PREINCUBATION",active; positive
same,mutagenic call,"Test System: AMES SALMONELLA TYPHIMURIUM, Strain/Indicator: TA98, Metabolic Activation: HAMSTER, LIVER, S-9, AROCLOR 1254 (10%), Method: PREINCUBATION",active; positive
same,mutagenic call,[1],active; positive
same,mutagenic call,"Test System: AMES SALMONELLA TYPHIMURIUM, Strain/Indicator: TA98, Metabolic Activation: RAT, LIVER, S-9, AROCLOR 1254 (10%), Method: PREINCUBATION",active; positive
same,mutagenic call,"Test System: AMES SALMONELLA TYPHIMURIUM, Strain/Indicator: TA100, Metabolic Activation: HAMSTER, LIVER, S-9, AROCLOR 1254 (10%), Method: PREINCUBATION",inactive; negative
same,mutagenic call,[2],active; positive
same,mutagenic call,"Test System: AMES SALMONELLA TYPHIMURIUM, Strain/Indicator: TA100, Metabolic Activation: RAT, LIVER, S-9, AROCLOR 1254 (10%), Method: PREINCUBATION",active; positive
same,mutagenic call,"Test System: AMES SALMONELLA TYPHIMURIUM, Strain/Indicator: TA1535, Metabolic Activation: HAMSTER, LIVER, S-9, AROCLOR 1254 (10%), Method: PREINCUBATION",inactive; negative
same,mutagenic call,"Test System: AMES SALMONELLA TYPHIMURIUM, Strain/Indicator: TA1535, Metabolic Activation: NONE, Method: PREINCUBATION",inactive; negative
same,mutagenic call,"Test System: AMES SALMONELLA TYPHIMURIUM, Strain/Indicator: TA1535, Metabolic Activation: RAT, LIVER, S-9, AROCLOR 1254 (10%), Method: PREINCUBATION",inactive; negative
CSCCC(=O)N1[C@@H](c2ccccc2O)SC[C@H]1C(=O)O,mutagenic call,[3],inactive; negative
same,mutagenic call,[4],inactive; negative
same,mutagenic call,[5],inactive; negative
same,mutagenic call,"Test System: AMES SALMONELLA TYPHIMURIUM, Strain/Indicator: TA1537, Metabolic Activation: NONE, Method: STANDARD PLATE",inactive; negative
same,mutagenic call,[6],inactive; negative
same,mutagenic call,[7],inactive; negative
same,mutagenic call,[8],inactive; negative
COC(=O)Nc1nc2ccc(OS(=O)(=O)c3ccc(F)cc3)cc2[nH]1,mutagenic call,[3],inactive; negative
same,mutagenic call,"Test System: AMES SALMONELLA TYPHIMURIUM, Strain/Indicator: TA98, Metabolic Activation: RAT, LIVER, S-9, AROCLOR 1254, Method: STANDARD PLATE",inactive; negative
same,mutagenic call,[4],inactive; negative
same,mutagenic call,"Test System: AMES SALMONELLA TYPHIMURIUM, Strain/Indicator: TA100, Metabolic Activation: RAT, LIVER, S-9, AROCLOR 1254, Method: STANDARD PLATE",inactive; negative
same,mutagenic call,[5],inactive; negative
same,mutagenic call,"Test System: AMES SALMONELLA TYPHIMURIUM, Strain/Indicator: TA1535, Metabolic Activation: RAT, LIVER, S-9, AROCLOR 1254, Method: STANDARD PLATE",inactive; negative
same,mutagenic call,[6],inactive; negative
same,mutagenic call,"Test System: AMES SALMONELLA TYPHIMURIUM, Strain/Indicator: TA1538, Metabolic Activation: RAT, LIVER, S-9, AROCLOR 1254, Method: STANDARD PLATE",inactive; negative
same,mutagenic call,[7],inactive; negative
same,mutagenic call,"Test System: E. COLI, Strain/Indicator: WP2, Metabolic Activation: RAT, LIVER, S-9, AROCLOR 1254, Method: STANDARD PLATE",inactive; negative
same,mutagenic call,"Test System: E. COLI, Strain/Indicator: WP2 UVRA (PKM101), Metabolic Activation: NONE, Method: STANDARD PLATE",inactive; negative
same,mutagenic call,"Test System: E. COLI, Strain/Indicator: WP2 UVRA (PKM101), Metabolic Activation: RAT, LIVER, S-9, AROCLOR 1254, Method: STANDARD PLATE",inactive; negative
same,mutagenic call,[8],inactive; negative
same,mutagenic call,"Test System: E. COLI, Strain/Indicator: WP2 UVRA, Metabolic Activation: RAT, LIVER, S-9, AROCLOR 1254, Method: STANDARD PLATE",inactive; negative
Nc1ccc(Cc2ccc(N=O)c(Cl)c2)cc1Cl,mutagenic call,[1],inactive; negative
same,mutagenic call,[2],inactive; negative
O=[N+]([O-])c1c2c(c3ccc4cccc5ccc1c3c45)CCCC2O (centres undefined),mutagenic call,[3],inactive; negative
same,mutagenic call,[4],inactive; negative
CCCCNCCCNCCCNC(=O)c1csc(-c2csc(CCNC(=O)C(NC(=O)C(C)C(O)C(C)NC(=O)C(NC(=O)c3nc(C(CC(N)=O)NCC(N)C(N)=O)nc(N)c3C)C(OC3OC(CO)C(O)C(O)C3OC3OC(CO)C(O)C(OC(N)=O)C3O)c3cnc[nH]3)C(C)O)n2)n1 (centres undefined),mutagenic call,"Test System: AMES SALMONELLA TYPHIMURIUM, Strain/Indicator: TA102, Metabolic Activation: NONE, Method: PREINCUBATION",active; positive
O=NN(CCO)CC(=O)O,mutagenic call,[2],active; positive
